Test results taken from US20040176431A1, “Antiproliferative 2-(sulfo-phenyl)-aminothiazole derivatives and pharmaceutical compositions, and methods for their use” (Pfizer, Inc., priority 2003, published 2004).
Structures can show the parent of a compound that is named as a salt.

What was measured:
CDK4/cyclin D3 = target: T1, CDK4/cyclin D3 (Homo sapiens, UniProt P11802); assay: Inhibition of CDK4/Cyclin D retinoblastoma kinase activity; format: biochemical; conditions: apparent Ki, Rb fragment substrate
T1 construct: made in house; host or cells: insect cells (baculovirus co-infection)
Procedure, shortened: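 Apparent Ki derived by fitting activity at varied inhibitor concentrations to competitive (or competitive tight-binding) inhibition equations, background without enzyme subtracted. Radiometric filter-binding read-out of Rb(386-928) phosphorylation by 5 nM CDK4/cyclin D3(1-264); 25 μM ATP, pH 7.4, 2% DMSO, 30° C., 20 min, extended to 60 min for tight binders.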

CDK2/cyclin A = target: T2, CDK2/cyclin A (Homo sapiens, UniProt P24941); assay: Inhibition of CDK2/Cyclin A retinoblastoma kinase activity; format: biochemical; conditions: apparent Ki, Rb fragment substrate
T2 construct: made in house; host or cells: CDK2: insect cells (baculovirus); cyclin A: E. coli, then limited proteolysis
Method: Cyclin-dependent kinase activity was measured by quantifying the enzyme-catalyzed, time-dependent incorporation of radioactive phosphate from [^32P]ATP or [^33P]ATP into a protein substrate. Unless noted otherwise, assays were performed in 96-well plates in a total volume of 50 μL, in the presence of 10 mM HEPES (N-[2-hydroxyethyl]piperazine-N′-[2-ethanesulfonic acid]) (pH 7.4), 10 mM MgCl2, 25 μM adenosine triphosphate (ATP), 1 mg/mL ovalbumin, 5 μg/mL leupeptin, 1 mM dithiothreitol, 10 mM β-glycerophosphate, 0.1 mM sodium vanadate, 1 mM sodium fluoride, 2.5 mM ethylene glycol-bis(β-aminoethyl ether)-N,N,N′N′-tetraacetic acid (EGTA), 2% (v/v) dimethylsulfoxide, and 0.03-0.4 μCi [^32/33P]ATP per reaction. Reactions were initiated with enzyme, incubated at 30° C., and terminated after 20 minutes by the addition of ethylenediaminetetraacetic acid (EDTA) to 250 mM. The phosphorylated substrate was then captured on a nitrocellulose or phosphocellulose membrane using a 96-well filtration manifold, and unincorporated radioactivity was removed by repeated washing with 0.85% phosphoric acid. Radioactivity was quantified by exposing the dried membranes to a phosphorimager.
Inhibition was measured relative to control wells that contained all reaction components including 2% (v/v) DMSO but no compound, after subtraction of background radioactivity measured in the absence of enzyme. Apparent Ki values of discrete compounds were measured by assaying enzyme activity in the presence of different inhibitor compound concentrations and subtracting the background radioactivity measured in the absence of enzyme. The kinetic parameters (kcat, Km for ATP) were measured for each enzyme under the usual assay conditions by determining the dependence of initial rates on ATP concentration. Inhibition data were fit to an equation for competitive inhibition using Kaleidagraph (Synergy Software), or were fit to an equation for competitive tight-binding inhibition using the software KineTic (BioKin, Ltd.).
CDK2 was purified using published methodology (Rosenblatt et al., J. Mol. Biol., 230, 1317-1319 (1993)) from insect cells that had been infected with a baculovirus expression vector. Cyclin A was purified from E. coli cells expressing full-length recombinant cyclin A, and a truncated cyclin A construct was generated by limited proteolysis and purified as described previously (Jeffrey et al., Nature, 376, 313-320 (1995)). A complex of CDK2 and proteolyzed cyclin A was prepared and purified by gel filtration. The substrate for this assay was the same Rb substrate fragment used for the CDK4 assays, and the methodology of the CDK2/delta cyclin A and the CDK4/delta cyclin D3 assays was essentially the same, except that CDK2 was present at 10 nM or 19 nM. The duration of the assay was 60 or 75 minutes, during which the time-dependence of product formation was linear and initial rate conditions were met.

HCT-116 cells = assay: Inhibition of cell growth (MTT tetrazolium salt assay); format: cell-based; conditions: Homo sapiens; for IC50: read-out: HCT116 IC50; for IC90: read-out: HCT116 IC90
Method: Inhibition of cell growth was measured using the tetrazolium salt assay, which is based on the ability of viable cells to reduce 3-(4,5-dimethylthiazol-2-yl)-2,5-[2H]-diphenyltetrazolium bromide (MTT) to formazan (Mosmann, J. Immunol. Meth., 65, 55-63 (1983)). The water-insoluble purple formazan product was then detected spectrophotometrically. HCT-116 cells were grown in 96-well plates. Cells were plated in the appropriate medium at a volume of 135 μl/well in either McCoy's 5A Medium. Plates were incubated for four hours before addition of inhibitor compounds. Different concentrations of inhibitor compounds were added in 0.5% (v/v) dimethylsulfoxide (15 μL/well), and cells were incubated at 37° C. (5% CO2) for four to six days (depending on cell type). At the end of the incubation, MTT was added to a final concentration of 0.2 mg/mL, and cells were incubated for 4 hours more at 37° C. After centrifugation of the plates and removal of medium, the absorbance of the formazan (solubilized in dimethylsulfoxide) was measured at 540 nm. […] All results were compared to control cells treated only with 0.5% (v/v) dimethylsulfoxide.

T1 sequence (P11802 whole entry, the tested form may be a part): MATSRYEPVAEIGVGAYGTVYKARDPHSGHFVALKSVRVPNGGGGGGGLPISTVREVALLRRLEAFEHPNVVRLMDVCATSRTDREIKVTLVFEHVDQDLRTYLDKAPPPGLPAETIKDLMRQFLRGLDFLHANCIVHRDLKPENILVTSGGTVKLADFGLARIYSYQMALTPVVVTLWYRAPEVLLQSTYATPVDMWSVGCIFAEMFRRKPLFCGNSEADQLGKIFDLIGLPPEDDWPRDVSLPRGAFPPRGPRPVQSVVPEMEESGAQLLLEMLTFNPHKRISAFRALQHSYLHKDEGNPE
T1 sequence (P30281 1-264 partner limits assumed): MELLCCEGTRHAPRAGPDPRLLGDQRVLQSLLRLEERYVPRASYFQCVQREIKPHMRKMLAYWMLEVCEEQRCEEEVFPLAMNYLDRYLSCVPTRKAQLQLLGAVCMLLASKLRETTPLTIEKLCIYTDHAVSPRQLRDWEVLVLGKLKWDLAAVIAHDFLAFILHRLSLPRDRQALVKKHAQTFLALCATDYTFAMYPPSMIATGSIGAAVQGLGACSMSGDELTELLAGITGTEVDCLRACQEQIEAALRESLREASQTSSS

Ki (CDK4/cyclin D3) [nM]	Ki (CDK2/cyclin A) [nM]	IC50 (HCT-116 cells) [nM]	IC90 (HCT-116 cells) [nM]	SMILES
17	13	440	1200	Nc1nc(Nc2ccc(S(=O)(=O)NCCc3cccs3)cc2)sc1C(=O)c1c(F)cccc1F [A(23), 4-[4-Amino-5-(2,6-difluoro-benzoyl)-thiazol-2-ylamino]-N-(2-thiophen-2-yl-ethyl)-benzenesulfonamide]
18	5	1200	2600	Nc1nc(Nc2ccc(S(=O)(=O)NCCc3ccccn3)cc2)sc1C(=O)c1c(F)cccc1F [A(24), 4-[4-Amino-5-(2,6-difluoro-benzoyl)-thiazol-2-ylamino]-N-(2-pyridin-2-yl-ethyl)-benzenesulfonamide]
16	4.1	3400	5000	Nc1nc(Nc2ccc(S(=O)(=O)NCCCN3CCCC3=O)cc2)sc1C(=O)c1c(F)cccc1F [A(25), 4-[4-Amino-5-(2,6-difluoro-benzoyl)-thiazol-2-ylamino]-N-[3-(2-oxo-pyrrolidin-1-yl)-propyl]-benzenesulfonamide]
3	2.9	850	3300	CCN(CC)CCCCNS(=O)(=O)c1ccc(Nc2nc(N)c(C(=O)c3c(F)cccc3F)s2)cc1 [A(26), 4-[4-Amino-5-(2,6-difluoro-benzoyl)-thiazol-2-ylamino]-N-(4-diethylamino-butyl)-benzenesulfonamide]
57	4.6	400	1000	Nc1nc(Nc2ccc(S(=O)(=O)NCc3cccs3)cc2)sc1C(=O)c1c(F)cccc1F [A(27), 4-[4-Amino-5-(2,6-difluoro-benzoyl)-thiazol-2-ylamino]-N-thiophen-2-ylmethyl-benzenesulfonamide]
12	2.6	1200	2800	Nc1nc(Nc2ccc(S(=O)(=O)NCCCCCO)cc2)sc1C(=O)c1c(F)cccc1F [A(28), 4-[4-Amino-5-(2,6-difluoro-benzoyl)-thiazol-2-ylamino]-N-(5-hydroxy-pentyl)-benzenesulfonamide]
15	< 5	190	560	Cc1ccc(CNS(=O)(=O)c2ccc(Nc3nc(N)c(C(=O)c4c(F)cccc4F)s3)cc2)s1 [A(29), 4-[4-Amino-5-(2,6-difluoro-benzoyl)-thiazol-2-ylamino]-N-(5-methyl-thiophen-2-ylmethyl)-benzenesulfonamide]
9	< 5	310	640	Cc1ccc(C(C)NS(=O)(=O)c2ccc(Nc3nc(N)c(C(=O)c4c(F)cccc4F)s3)cc2)o1 (stereo not drawn) [A(30), 4-[4-Amino-5-(2,6-difluoro-benzoyl)-thiazol-2-ylamino]-N-[1-(5-methyl-furan-2-yl)-ethyl]-benzenesulfonamide]
16	< 5	140	380	Nc1nc(Nc2ccc(S(=O)(=O)NCCCc3ccccc3)cc2)sc1C(=O)c1c(F)cccc1F [A(32), 4-[4-Amino-5-(2,6-difluoro-benzoyl)-thiazol-2-ylamino]-N-(3-phenyl-propyl)-benzenesulfonamide]
5.1	< 10	780	1800	Nc1nc(Nc2ccc(S(=O)(=O)NCc3cc4ccccc4o3)cc2)sc1C(=O)c1c(F)cccc1F [A(34), 4-[4-Amino-5-(2,6-difluoro-benzoyl)-thiazol-2-ylamino]-N-benzofuran-2-ylmethyl-benzenesulfonamide]
35	4.9	1200	3800	CC(C)CCCCNS(=O)(=O)c1ccc(Nc2nc(N)c(C(=O)c3c(F)cccc3F)s2)cc1 [A(37), 4-[4-Amino-5-(2,6-difluoro-benzoyl)-thiazol-2-ylamino]-N-(5-methyl-hexyl)-benzenesulfonamide]
3.9	0.48	–	–	Cn1cncc1CNS(=O)(=O)c1ccc(Nc2nc(N)c(C(=O)c3c(F)cccc3F)s2)cc1 [A(38), 4-[4-Amino-5-(2,6-difluoro-benzoyl)-thiazol-2-ylamino]-N-(1-methyl-1H-imidazol-5-ylmethyl)-benzenesulfonamide Trifluoroacetic Acid Salt]
–	430	–	–	CS(=O)(=O)c1cccc(Nc2nc(N)c(C(=O)c3c(Cl)cccc3Cl)s2)c1 [AA(1), 4-Amino-5-(2,6-dichloro-benzoyl)-2-(3-methanesulfonyl-phenylamino)-thiazole]
–	190	–	–	Nc1nc(Nc2ccc(S(=O)(=O)c3ccncc3)cc2)sc1C(=O)c1c(Cl)cccc1Cl [AA(3), 4-Amino-5-(2,6-dichlorobenzoyl)-2-[4-(pyridine-4-sulfonyl)-phenylamino]-thiazole]
100	< 10	900	2000	Cc1ccc(CNS(=O)(=O)c2ccc(Nc3nc(N)c(C(=O)c4c(F)cc(F)cc4F)s3)cc2)o1 [B(1), 4-[4-Amino-5-(2,4,6-trifluoro-benzoyl)-thiazol-2-ylamino]-N-(5-methyl-furan-2-ylmethyl)-benzenesulfonamide]
–	–	1600	3000	CN(C)S(=O)(=O)c1ccc(Nc2nc(N)c(C(=O)c3c(F)cccc3F)s2)cc1 [C(109)*, reference compound]
–	–	980	2100	Nc1nc(Nc2ccc(S(N)(=O)=O)cc2)sc1C(=O)c1c(F)cc(F)cc1F [C(115)*, reference compound]
62	11	–	–	Nc1nc(Nc2ccc(S(=O)(=O)NCc3cc(Cl)ccc3Cl)cc2)sc1C(=O)c1c(F)cccc1F [Example A(7), 4-[4-Amino-5-(2,6-difluoro-benzoyl)-thiazol-2-ylamino]-N-(2,5-dichloro-benzyl)-benzenesulfonamide]
22	–	240	620	Nc1nc(Nc2ccc(S(=O)(=O)NCc3ccco3)cc2)sc1C(=O)c1c(F)cccc1F [Example A(22), 4-[4-Amino-5-(2,6-difluoro-benzoyl)-thiazol-2-ylamino]-N-furan-2-ylmethyl-benzenesulfonamide]
190	500	–	–	Nc1nc(Nc2ccc(Sc3ccccn3)cc2)sc1C(=O)c1c(Cl)cccc1Cl [W(2), 4-Amino-5-(2,6-dichloro-benzoyl)-2-[4-(pyridin-2-ylthio)-phenylamino]-thiazole]
–	520	–	–	Nc1nc(Nc2ccc(S)cc2)sc1C(=O)c1c(Cl)cccc1Cl [X(1), 4-Amino-5-(2,6-dichloro-benzoyl)-2-(4-mercapto-phenylamino)-thiazole]
–	1600	–	–	Nc1nc(Nc2cccc(S)c2)sc1C(=O)c1c(Cl)cccc1Cl [X(2)]
–	450	–	–	C[S+]([O-])c1cccc(Nc2nc(N)c(C(=O)c3c(Cl)cccc3Cl)s2)c1 (stereo not drawn) [Z(1), 4-Amino-5-(2,6-benzoyl)-2-(3-methanesulfinyl-phenylamino)-thiazole]
